Each block holds one molecule with its values, some of them ahead of it.
How the values were obtained:
[1] = Half life in mouse at 10 mg/kg, po; type: ADME, organism-based; parameters: dose 10 mg/kg, route oral; conditions: in vivo
[2] = target: T1, 11-beta-hydroxysteroid dehydrogenase 1 (Homo sapiens, UniProt P28845); test: Inhibition of human 11beta-HSD1 expressed in HEK293 cells by FPIA; type: cell-based
[3] = target: T2, 11-beta-hydroxysteroid dehydrogenase type 2 (Homo sapiens, UniProt P80365); test: Inhibitory activity against human 11beta-HSD2 by SPA
T2 sequence (P80365 whole entry): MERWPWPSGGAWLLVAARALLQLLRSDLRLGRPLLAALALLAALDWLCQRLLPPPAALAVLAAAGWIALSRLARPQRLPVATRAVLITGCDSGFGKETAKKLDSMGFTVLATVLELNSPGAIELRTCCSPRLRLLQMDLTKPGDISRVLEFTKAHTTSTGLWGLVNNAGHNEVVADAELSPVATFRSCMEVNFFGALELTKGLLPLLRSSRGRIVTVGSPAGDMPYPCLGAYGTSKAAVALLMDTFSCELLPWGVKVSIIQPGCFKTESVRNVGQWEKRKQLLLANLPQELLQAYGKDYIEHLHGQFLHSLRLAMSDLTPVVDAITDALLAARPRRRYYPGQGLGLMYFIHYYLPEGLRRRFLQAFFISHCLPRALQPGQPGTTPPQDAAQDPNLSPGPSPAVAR

[4] = target: T3, 11-beta-hydroxysteroid dehydrogenase type 2 (Mus musculus, UniProt P51661); test: Inhibitory activity against mouse 11beta-HSD2 by SPA
T3 sequence (P51661 whole entry): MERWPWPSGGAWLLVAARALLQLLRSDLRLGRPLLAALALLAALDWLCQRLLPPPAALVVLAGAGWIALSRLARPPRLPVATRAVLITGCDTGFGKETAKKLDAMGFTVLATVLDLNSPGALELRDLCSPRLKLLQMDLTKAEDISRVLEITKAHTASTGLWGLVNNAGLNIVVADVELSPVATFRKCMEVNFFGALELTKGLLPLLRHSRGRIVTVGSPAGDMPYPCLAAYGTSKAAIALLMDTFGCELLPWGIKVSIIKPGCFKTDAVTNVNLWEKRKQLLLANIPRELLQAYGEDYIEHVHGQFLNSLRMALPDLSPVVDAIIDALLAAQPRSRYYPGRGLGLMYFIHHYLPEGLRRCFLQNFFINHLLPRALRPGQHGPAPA

[5] = Plasma clearance in mouse at 10 mg/kg, iv; type: ADME, organism-based; parameters: dose 10 mg/kg, route intravenous
[6] = Volume of distribution in mouse at 10 mg/kg, iv; type: ADME, organism-based; parameters: dose 10 mg/kg, route intravenous; conditions: in vivo, read-out: Vdss
[7] = target: 11-beta-hydroxysteroid dehydrogenase 1 (Rattus norvegicus, UniProt P16232); test: Inhibitory activity against rat 11beta-HSD1
11-beta-hydroxysteroid dehydrogenase 1 (Rattus norvegicus, UniProt P16232), sequence (P16232 whole entry): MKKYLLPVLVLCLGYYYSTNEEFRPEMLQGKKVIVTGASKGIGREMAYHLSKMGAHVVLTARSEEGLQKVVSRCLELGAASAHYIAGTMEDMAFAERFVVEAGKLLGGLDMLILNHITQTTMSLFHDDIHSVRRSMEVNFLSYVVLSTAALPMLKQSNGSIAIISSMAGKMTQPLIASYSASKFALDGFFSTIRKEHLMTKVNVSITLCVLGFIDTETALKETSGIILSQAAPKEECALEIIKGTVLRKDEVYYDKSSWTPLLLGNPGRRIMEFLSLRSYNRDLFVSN

[8] = Half life in mouse at 10 mg/kg, iv; type: ADME, organism-based; parameters: dose 10 mg/kg, route intravenous; conditions: in vivo
[9] = Oral bioavailability in mouse at 10 mg/kg, po; type: ADME, organism-based; conditions: in vivo
[10] = target: T1, 11-beta-hydroxysteroid dehydrogenase 1; test: Inhibition of human 11beta-HSD1 expressed in Escherichia coli by SPA
[11] = Intrinsic clearance in rat liver microsomes at 1 uM; type: ADME, Microsome
[12] = Intrinsic clearance in human liver microsomes at 1 uM; type: ADME, Microsome
[13] = target: 11-beta-hydroxysteroid dehydrogenase 1 (Mus musculus, UniProt P50172); test: Inhibition of mouse 11beta-HSD1 expressed in Escherichia coli by SPA
11-beta-hydroxysteroid dehydrogenase 1 (Mus musculus, UniProt P50172), sequence (P50172 whole entry): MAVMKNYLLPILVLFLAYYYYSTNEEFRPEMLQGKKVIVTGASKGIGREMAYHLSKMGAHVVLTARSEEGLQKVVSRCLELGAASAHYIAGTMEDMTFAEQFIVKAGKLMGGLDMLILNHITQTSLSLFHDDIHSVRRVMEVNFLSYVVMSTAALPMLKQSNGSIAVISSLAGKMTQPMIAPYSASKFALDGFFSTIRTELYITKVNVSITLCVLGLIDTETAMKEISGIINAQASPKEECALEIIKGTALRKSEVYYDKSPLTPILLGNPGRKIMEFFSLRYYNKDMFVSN

[14] = target: T4, 11-beta-hydroxysteroid dehydrogenase type 2 (Rattus norvegicus, UniProt P50233); test: Inhibitory activity against rat 11beta-HSD2
T4 sequence (P50233 whole entry): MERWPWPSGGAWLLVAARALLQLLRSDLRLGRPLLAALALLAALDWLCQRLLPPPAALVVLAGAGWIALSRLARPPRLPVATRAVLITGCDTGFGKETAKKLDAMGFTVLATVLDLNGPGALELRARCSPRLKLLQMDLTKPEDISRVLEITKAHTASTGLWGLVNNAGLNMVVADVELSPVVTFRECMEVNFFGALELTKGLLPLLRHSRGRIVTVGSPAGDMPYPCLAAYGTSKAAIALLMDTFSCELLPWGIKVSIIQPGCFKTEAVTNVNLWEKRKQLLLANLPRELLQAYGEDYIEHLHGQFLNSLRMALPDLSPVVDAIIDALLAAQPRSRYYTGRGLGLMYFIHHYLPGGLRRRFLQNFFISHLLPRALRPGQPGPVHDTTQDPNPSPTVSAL

[15] = Intrinsic clearance in mouse liver microsomes at 1 uM; type: ADME, Microsome
Mus musculus = test: AUC in mouse at 10 mg/kg, po; type: ADME, organism-based, Plasma; parameters: dose 10 mg/kg, route oral; conditions: in vivo
Rattus norvegicus = test: Area under the curve in rat at 5 mg/kg, po; type: ADME, organism-based; parameters: dose 5 mg/kg, route oral; conditions: in vivo
[16] = target: 11-beta-hydroxysteroid dehydrogenase 1 (Mus musculus) (UniProt P50172); test: Inhibition of mouse 11beta-HSD1 in DIO mouse liver at 30 mg/kg, po after 7 hrs; type: organism-based; parameters: dose 30 mg/kg
11-beta-hydroxysteroid dehydrogenase 1 (Mus musculus), sequence (P50172 whole entry, looked up): as the sequence (P50172 whole entry) above

[17] = Half life in rat at 5 mg/kg, iv; type: ADME, organism-based; parameters: dose 5 mg/kg, route intravenous; conditions: in vivo
[18] = target: 11-beta-hydroxysteroid dehydrogenase 1 (Mus musculus) (UniProt P50172); test: Inhibition of mouse 11beta-HSD1 in DIO mouse adipose tissue at 30 mg/kg, po after 7 hrs; type: organism-based; parameters: dose 30 mg/kg
[19] = target: 11-beta-hydroxysteroid dehydrogenase 1 (Mus musculus) (UniProt P50172); test: Inhibition of mouse 11beta-HSD1 in DIO mouse adipose tissue at 30 mg/kg, po after 1 hr; type: organism-based; parameters: dose 30 mg/kg
[20] = Oral bioavailability in rat at 5 mg/kg, po; type: ADME, organism-based; conditions: in vivo
[21] = target: 11-beta-hydroxysteroid dehydrogenase 1 (Mus musculus) (UniProt P50172); test: Inhibition of mouse 11beta-HSD1 in DIO mouse brain at 30 mg/kg, po after 1 hr; type: organism-based; parameters: dose 30 mg/kg
[22] = target: 11-beta-hydroxysteroid dehydrogenase 1 (Mus musculus) (UniProt P50172); test: Inhibition of mouse 11beta-HSD1 in DIO mouse brain at 30 mg/kg, po after 7 hrs; type: organism-based; parameters: dose 30 mg/kg
[23] = Plasma clearance in rat at 5 mg/kg, iv; type: ADME, organism-based; parameters: dose 5 mg/kg, route intravenous
[24] = Volume of distribution in rat at 5 mg/kg, iv; type: ADME, organism-based; parameters: dose 5 mg/kg, route intravenous; conditions: in vivo, read-out: Vss
[25] = Half life in rat at 5 mg/kg, po; type: ADME, organism-based; parameters: dose 5 mg/kg, route oral; conditions: in vivo
[26] = target: 11-beta-hydroxysteroid dehydrogenase 1 (Mus musculus) (UniProt P50172); test: Inhibition of mouse 11beta-HSD1 in DIO mouse liver at 30 mg/kg, po after 1 hr; type: organism-based; parameters: dose 30 mg/kg

T1 sequence (P28845 whole entry): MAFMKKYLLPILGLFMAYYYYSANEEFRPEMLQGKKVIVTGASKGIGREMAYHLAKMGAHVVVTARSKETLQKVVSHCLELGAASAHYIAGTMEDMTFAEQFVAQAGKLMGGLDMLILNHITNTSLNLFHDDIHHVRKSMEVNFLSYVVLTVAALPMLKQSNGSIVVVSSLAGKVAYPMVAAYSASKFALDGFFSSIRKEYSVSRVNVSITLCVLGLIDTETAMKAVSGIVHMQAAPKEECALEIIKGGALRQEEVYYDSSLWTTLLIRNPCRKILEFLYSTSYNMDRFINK

Structure (SMILES): CC(C)(C(=O)N[C@H]1C2C[C@@]3(O)CC1C[C@@](O)(C2)C3)N1CCN(c2ccc(C(F)(F)F)cn2)CC1
CLint scaled at 1 µM [12]: < 16.7 mL/min/kg
Ki [13]: 470 nM
CLint scaled at 1 µM [15]: 383 mL/min/kg

Structure (SMILES): CO[C@]12CC3C[C@](O)(CC(C1)C3NC(=O)C(C)(C)N1CCN(c3ccc(C(F)(F)F)cn3)CC1)C2 (stereo partly specified)
CLint scaled at 1 µM [12]: < 16.7 mL/min/kg
Ki [13]: 180 nM
CLint scaled at 1 µM [15]: 1000 mL/min/kg

Structure (SMILES): O=C(CN1CCN(c2ccc(C(F)(F)F)cn2)CC1)N[C@H]1C2CC3CC1C[C@@](O)(C3)C2
IC50 [2]: > 15000 nM
IC50 [3]: > 10000 nM
IC50 [4]: > 100000 nM
Ki [10]: 67 nM
CLint scaled at 1 µM [12]: 183 mL/min/kg
Ki [13]: 300 nM
CLint scaled at 1 µM [15]: 1080 mL/min/kg

Structure (SMILES): N#Cc1cccnc1N1CCN(CC(=O)NC2C3CC4CC(C3)CC2C4)CC1 (stereo unspecified)
IC50 [2]: 260 nM
IC50 [3]: > 100000 nM
IC50 [4]: > 100000 nM
Ki [10]: 14 nM
CLint scaled at 1 µM [12]: 1830 mL/min/kg
Ki [13]: 53 nM
CLint scaled at 1 µM [15]: 6330 mL/min/kg

Structure (SMILES): CO[C@]12CC3CC(C1)[C@@H](NC(=O)C(C)N1CCN(c4ccc(C(F)(F)F)cn4)CC1)C(C3)C2 (mixture of isomers)
CLint scaled at 1 µM [12]: 50 mL/min/kg
Ki [13]: 18 nM
CLint scaled at 1 µM [15]: 183 mL/min/kg

Structure (SMILES): O=C(CN1CCN(c2ccc(Cl)cc2)CC1)NC1C2CC3CC(C2)CC1C3 (stereo unspecified)
CLint scaled at 1 µM [12]: 583 mL/min/kg
Ki [13]: 21 nM
CLint scaled at 1 µM [15]: 1050 mL/min/kg

Structure (SMILES): O=C(CN1CCN(c2ccc(C(F)(F)F)cn2)CC1)N[C@H]1C2CC3CC1C[C@@](F)(C3)C2
IC50 [2]: 450 nM
IC50 [3]: > 100000 nM
IC50 [4]: > 100000 nM
Ki [10]: 26 nM
CLint scaled at 1 µM [12]: 233 mL/min/kg
Ki [13]: 110 nM
CLint scaled at 1 µM [15]: < 100 mL/min/kg

Structure (SMILES): CC(C(=O)N[C@H]1C2C[C@]3(O)CC1C[C@](F)(C2)C3)N1CCN(c2ccc(C(F)(F)F)cn2)CC1 (mixture of isomers)
CLint scaled at 1 µM [12]: 16.7 mL/min/kg
Ki [13]: 910 nM
CLint scaled at 1 µM [15]: 933 mL/min/kg

Stronger by Ki [13], values ahead:

half-life [1]: 4.2 h
IC50 [2]: 21 nM
IC50 [3]: 62000 nM
IC50 [4]: > 100000 nM
clearance [5]: 155 mL/min/kg
Vd [6]: 2.7 L/kg
Ki [7]: 13 nM
half-life [8]: 0.5 h
bioavailability [9]: 19%
Ki [10]: 4 nM
CLint scaled at 1 µM [11]: 567 mL/min/kg
CLint scaled at 1 µM [12]: 33.3 mL/min/kg
Ki [13]: 5 nM
IC50 [14]: > 100000 nM
CLint scaled at 1 µM [15]: 333 mL/min/kg
AUC (Mus musculus): 0.2 ug/hr.ml
Structure (SMILES): CC(C(=O)N[C@H]1C2CC3CC1C[C@](O)(C3)C2)N1CCc2ccc3c(c2CC1)OCO3 (stereo partly specified)

IC50 [2]: 26 nM
Ki [10]: 4 nM
CLint scaled at 1 µM [12]: 16.7 mL/min/kg
Ki [13]: 5 nM
Structure (SMILES): C[C@@H](C(=O)N[C@H]1C2CC3CC1C[C@](O)(C3)C2)N1CCN(c2ccc(C(F)(F)F)cn2)CC1 (stereo in doubt; (R)-22f)

half-life [1]: 1 h
IC50 [2]: 29 nM
AUC (Rattus norvegicus): 1 ug/hr.ml
IC50 [3]: > 100000 nM
IC50 [4]: > 100000 nM
clearance [5]: 55 mL/min/kg
Vd [6]: 1.6 L/kg
inhibition [16]: 9%
half-life [17]: 1 h
inhibition [18]: 16%
inhibition [19]: 51%
Ki [7]: 4 nM
half-life [8]: 0.4 h
bioavailability [20]: 37%
bioavailability [9]: 65%
Ki [10]: 5 nM
inhibition [21]: 37%
CLint scaled at 1 µM [11]: 83.3 mL/min/kg
inhibition [22]: 25%
CLint scaled at 1 µM [12]: 50 mL/min/kg
clearance [23]: 33.3 mL/min/kg
Ki [13]: 15 nM
Vd [24]: 1 L/kg
half-life [25]: 1.6 h
IC50 [14]: > 100000 nM
CLint scaled at 1 µM [15]: 117 mL/min/kg
AUC (Mus musculus): 1.9 ug/hr.ml
inhibition [26]: 36%
Structure (SMILES): CC(C(=O)N[C@H]1C2CC3CC1C[C@](O)(C3)C2)N1CCN(c2ccc(C(F)(F)F)cn2)CC1 (mixture of isomers)

IC50 [2]: 180 nM
IC50 [3]: > 100000 nM
IC50 [4]: > 100000 nM
Ki [10]: 12 nM
CLint scaled at 1 µM [12]: < 16.7 mL/min/kg
Ki [13]: 9 nM
CLint scaled at 1 µM [15]: < 100 mL/min/kg
Structure (SMILES): C[C@H](C(=O)N[C@H]1C2CC3CC1C[C@](O)(C3)C2)N1CC[C@@H](F)C1

From ChEMBL document CHEMBL1139224, “Discovery and metabolic stabilization of potent and selective 2-amino-N-(adamant-2-yl) acetamide 11beta-hydroxysteroid dehydrogenase type 1 inhibitors” (J Med Chem, 2007)
